Where “and” joins values, the source holds several entries; their conditions need not be identical. Equal values may be shown once. Read-outs that look alike come from different tables or passages of the source.
Legend:
Type in all cases: cell-based
[1] = biological target: T1, GPR139 (Homo sapiens, UniProt Q6DWJ6); experiment: Ca2+ mobilization assay, agonist mode, stable GPR139-CHOk1 cell line; details: for Emax: normalized to Lundbeck Cmp 1a, read-out: Emax (%) Ca2+
T1 sequence (Q6DWJ6 1-353): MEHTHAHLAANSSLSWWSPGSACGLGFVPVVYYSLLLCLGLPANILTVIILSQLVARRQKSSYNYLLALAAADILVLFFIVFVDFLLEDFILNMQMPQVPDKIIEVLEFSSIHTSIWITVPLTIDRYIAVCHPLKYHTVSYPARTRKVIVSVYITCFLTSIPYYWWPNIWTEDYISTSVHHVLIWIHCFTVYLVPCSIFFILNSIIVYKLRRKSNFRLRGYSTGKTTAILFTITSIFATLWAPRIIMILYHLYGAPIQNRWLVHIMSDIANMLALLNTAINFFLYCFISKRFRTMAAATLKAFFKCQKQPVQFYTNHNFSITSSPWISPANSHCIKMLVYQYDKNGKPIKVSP
Summary of the method: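 Agonist activity of compounds is assessed in stably transfected CHO-K1 cells using the calcium dye Fluo-4 at 37 °C in HEPES-buffered HBSS (pH 7.4). Efficacy is expressed relative to the reference agonist Lundbeck Cmp 1a, set as 100%.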

[2] = biological target: T1, GPR139; experiment: Ca2+ mobilization assay, antagonist mode (EC80 800 nM Lundbeck Cmp 1a after 20 min preincubation), GPR139-CHOk1; details: individual replicates (Supplementary Figure 4)
Summary of the method: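 Fluo-4-loaded GPR139-CHOk1 cells in HEPES-buffered HBSS (pH 7.4, 2.5 mM probenecid) given test compounds at 10 µM, then after 20 min challenged with 800 nM Lundbeck Cmp 1a (EC80). Calcium fluorescence read at 37 °C, 485/525 nm.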

[3] = biological target: T2, human muscarinic acetylcholine M1 receptor (M1R) (Homo sapiens, UniProt P11229); experiment: Ca2+ mobilization counter-screen in M1R-CHOk1 cells; details: individual replicates (Supplementary Figure 5)
T2 sequence (P11229 1-460): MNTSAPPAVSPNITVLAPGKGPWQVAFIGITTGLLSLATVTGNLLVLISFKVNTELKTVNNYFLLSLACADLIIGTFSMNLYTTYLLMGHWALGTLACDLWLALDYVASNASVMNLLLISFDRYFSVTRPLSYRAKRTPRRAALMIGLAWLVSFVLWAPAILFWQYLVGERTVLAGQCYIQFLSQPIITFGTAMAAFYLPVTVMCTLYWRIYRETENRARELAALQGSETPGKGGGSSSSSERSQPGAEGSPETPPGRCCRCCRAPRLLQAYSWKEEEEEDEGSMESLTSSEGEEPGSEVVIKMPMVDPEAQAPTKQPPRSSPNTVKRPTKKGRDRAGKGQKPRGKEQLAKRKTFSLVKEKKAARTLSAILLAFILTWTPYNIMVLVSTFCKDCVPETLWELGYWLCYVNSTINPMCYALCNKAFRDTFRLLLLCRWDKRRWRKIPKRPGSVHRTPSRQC
Summary of the method: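 M1R-CHOk1 cells seeded 20–24 h, loaded with 2 µM Fluo-4 AM (2.5 mM probenecid, 0.01% Pluronic F-68) for 1 h at 37 °C in HBSS/20 mM HEPES pH 7.4. Compounds added after baseline (≤0.3% DMSO); calcium fluorescence read at 37 °C, ex 485/em 525 nm.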

[4] = Agonist mode, individual replicates (Supplementary Figure 4)
[5] = Supplementary Table 2, mean ± SEM
[6] = log [Compound] M = -4.5, individual replicate columns
[7] = log [Compound] M = -5.0, individual replicate columns
[8] = log [Compound] M = -5.5, individual replicate columns
[9] = log [Compound] M = -6.0, individual replicate columns
[10] = log [Compound] M = -6.5, individual replicate columns
[11] = log [Compound] M = -7.0, individual replicate columns
[12] = log [Compound] M = -7.5, individual replicate columns
[13] = log [Compound] M = -8.0, individual replicate columns
[14] = log [Compound] M = -8.5, individual replicate columns
[15] = log [Compound] M = -9.0, individual replicate columns

Compound	Ca2+ signal (% of Cmp 1a) [1, 4]	fold decrease in potency relative to a similar phenyl substituted compound (1.3) ([1]; Ca2+ mobilization EC50)	EC50 ([1]; Supplementary Table 2, mean ± SEM, read-out: pEC50 Ca2+ (converted)) [µM]	Emax [1, 5] [%]	Ca2+ signal (% of Cmp 1a) [1, 6]	Ca2+ signal (% of Cmp 1a) [1, 7]	Ca2+ signal (% of Cmp 1a) [1, 8]	Ca2+ signal (% of Cmp 1a) [1, 9]	Ca2+ signal (% of Cmp 1a) [1, 10]	Ca2+ signal (% of Cmp 1a) [1, 11]	Ca2+ signal (% of Cmp 1a) [1, 12]	Ca2+ signal (% of Cmp 1a) [1, 13]	Ca2+ signal (% of Cmp 1a) [1, 14]	Ca2+ signal (% of Cmp 1a) [1, 15]	Ca2+ signal (% of Cmp 1a) [2]	Ca2+ signal (% of Carbachol) [3]	EC50 ([1]; GPR139-CHOk1, read-out: EC50, Ca2+ mobilization) [µM]
Cc1ccnc(-c2nc(CC(=O)NC(C)c3ccccc3)no2)c1 (stereo not shown) [Compound 1.17, CC(C1=CC=CC=C1)NC(CC2=NOC(C3=NC=CC(C)=C3)=N2)=O]	56 % of Cmp 1a and 85 % of Cmp 1a and 81 % of Cmp 1a	4- to 16 fold	0.794	98 ± 3	97 % of Cmp 1a (2×) and 99 % of Cmp 1a and 98 % of Cmp 1a and 90 % of Cmp 1a	111 % of Cmp 1a and 99 % of Cmp 1a and 92 % of Cmp 1a and 73 % of Cmp 1a and 91 % of Cmp 1a	133 % of Cmp 1a and 107 % of Cmp 1a and 62 % of Cmp 1a and 54 % of Cmp 1a and 75 % of Cmp 1a	82 % of Cmp 1a and 74 % of Cmp 1a and 57 % of Cmp 1a and 42 % of Cmp 1a and 56 % of Cmp 1a	39 % of Cmp 1a and 41 % of Cmp 1a and 22 % of Cmp 1a and 13 % of Cmp 1a and 21 % of Cmp 1a	27 % of Cmp 1a and 24 % of Cmp 1a and 4.3 % of Cmp 1a and 2.59 % of Cmp 1a and 7 % of Cmp 1a	12 % of Cmp 1a (2×) and -2.74 % of Cmp 1a and 7 % of Cmp 1a and 4.7 % of Cmp 1a	7 % of Cmp 1a and 3 % of Cmp 1a and -1 % of Cmp 1a and 10 % of Cmp 1a and 2.65 % of Cmp 1a	7 % of Cmp 1a and 1.19 % of Cmp 1a and 6 % of Cmp 1a (2×) and 3 % of Cmp 1a	11 % of Cmp 1a and 1.67 % of Cmp 1a and 3 % of Cmp 1a and 4.53 % of Cmp 1a and 4.33 % of Cmp 1a	4 % of Cmp 1a and 35 % of Cmp 1a and 2.33 % of Cmp 1a	-5.46 % of Carbachol and 6 % of Carbachol and 7.55 % of Carbachol	
COc1ccc(-c2nc(CC(=O)NC(C)c3ccccc3)no2)cc1 (stereo not shown) [Compound 1.18, COC1=CC=C(C2=NC(CC(NC(C3=CC=CC=C3)C)=O)=NO2)C=C1]	43 % of Cmp 1a and 66 % of Cmp 1a and 77 % of Cmp 1a			72 ± 5	87 % of Cmp 1a and 72 % of Cmp 1a and 75 % of Cmp 1a	75 % of Cmp 1a and 67 % of Cmp 1a and 70 % of Cmp 1a	73 % of Cmp 1a and 53 % of Cmp 1a and 59 % of Cmp 1a	61 % of Cmp 1a and 23 % of Cmp 1a and 42 % of Cmp 1a	30 % of Cmp 1a and 3.38 % of Cmp 1a and 24 % of Cmp 1a	7 % of Cmp 1a and 9 % of Cmp 1a and 8 % of Cmp 1a	6 % of Cmp 1a and 11 % of Cmp 1a and 5.71 % of Cmp 1a	-0.63 % of Cmp 1a and 3 % of Cmp 1a and 8 % of Cmp 1a	3.39 % of Cmp 1a and 6.59 % of Cmp 1a and 3.49 % of Cmp 1a	0.103 % of Cmp 1a and 9 % of Cmp 1a and 2.64 % of Cmp 1a	26 % of Cmp 1a and 19 % of Cmp 1a and 8 % of Cmp 1a	2 % of Carbachol and 2.18 % of Carbachol and -0.905 % of Carbachol	1

— article PMC12775434, “Ultra-large virtual screening unveils potent agonists of the neuromodulatory orphan receptor GPR139” (Nature Communications, 2025)
